From patent US10472347B2, “Aminopyrazine compounds with A2A antagonist properties” (Merck Sharp & Dohme Corp., priority 2014, dated 2019) come the findings set out here.

T1 sequence (P29274 whole entry): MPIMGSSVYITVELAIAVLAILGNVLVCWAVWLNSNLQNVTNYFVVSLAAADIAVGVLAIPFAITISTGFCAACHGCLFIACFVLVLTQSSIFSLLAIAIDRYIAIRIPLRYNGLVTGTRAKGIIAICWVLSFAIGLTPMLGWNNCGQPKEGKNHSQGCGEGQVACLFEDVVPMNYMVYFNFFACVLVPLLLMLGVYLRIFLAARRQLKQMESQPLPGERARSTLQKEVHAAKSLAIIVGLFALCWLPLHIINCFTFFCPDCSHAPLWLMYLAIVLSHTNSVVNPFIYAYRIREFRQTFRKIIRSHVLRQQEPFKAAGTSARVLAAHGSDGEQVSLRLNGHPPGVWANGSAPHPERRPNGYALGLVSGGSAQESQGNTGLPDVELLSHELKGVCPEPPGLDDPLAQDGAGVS

The experiment addresses T1, human A2a receptor (Homo sapiens, UniProt P29274).
T1 construct: purchased Perkin-Elmer RBHA2AM400UA; host or cells: HEK293 cells (membranes)
Nature of the experiment: A2a competition binding assay, Scintillation Proximity technology. The conditions noted are these: membranes from HEK293 cells expressing human A2a receptor; Ki by Cheng-Prusoff equation. Summed up: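 SPA competition: 0.5 nM tritiated pyrazolotriazolopyrimidine ligand displaced by compound at 3000 to 0.15 nM, 1 h room temperature, human A2a HEK293 membranes pretreated with adenosine deaminase, PBS/10 mM MgCl2 buffer. CGS15943 1 μM defined non-specific binding; EC50 converted to Ki via Cheng-Prusoff.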
The term Ki denotes a dissociation constant, usually derived from enzyme kinetics or from competition with a known ligand. Turning to `Cc1nc(C(=O)NCc2ccc(F)cc2F)c(N)nc1-c1cnco1` [Ex-253, 3-amino-N-(2,4-difluorobenzyl)-6-methyl-5-(1,3-oxazol-5-yl)pyrazine-2-carboxamide], the Ki came out at 8.57 nM. With `COc1ccccc1CNC(=O)c1nc(C)c(-c2cnco2)nc1N` [Ex-254, 3-amino-N-(2-methoxybenzyl)-6-methyl-5-(1,3-oxazol-5-yl)pyrazine-2-carboxamide], the Ki is 1.47 nM. In turn, `Cc1nc(C(=O)NCc2c(Cl)cccc2Cl)c(N)nc1-c1cnco1` [Ex-255, 3-amino-N-(2,6-dichlorobenzyl)-6-methyl-5-(1,3-oxazol-5-yl)pyrazine-2-carboxamide] registered a Ki of 0.2 nM. Compared with the last molecule, the Ki is about 7.3-fold lower. As for `Cc1cccc(Cl)c1CNC(=O)c1nc(C)c(-c2cnco2)nc1N` [Ex-256, 3-amino-N-(2-chloro-6-methylbenzyl)-6-methyl-5-(1,3-oxazol-5-yl)pyrazine-2-carboxamide], the figure is 0.196 nM; as for `Cc1nc(C(=O)NCc2ncccc2C(F)(F)F)c(N)nc1-c1cnco1` [Ex-257, 3-amino-6-methyl-5-(1,3-oxazol-5-yl)-N-{[3-(trifluoromethyl)pyridin-2-yl]methyl}pyrazine-2-carboxamide], 1.94 nM. `Cc1cc(Cl)cc(Cl)c1CNC(=O)c1nc(C)c(-c2cnco2)nc1N` [Ex-258, 3-amino-N-(2,4-dichloro-6-methylbenzyl)-6-methyl-5-(1,3-oxazol-5-yl)pyrazine-2-carboxamide] gave a Ki of 2.9 nM. The molecule `Cc1nc(C(=O)NC(C)(C)c2ccccn2)c(N)nc1-c1cnco1` [Ex-259, 3-amino-6-methyl-N-(1-methyl-1-pyridin-2-ylethyl)-5-(1,3-oxazol-5-yl)pyrazine-2-carboxamide] returned a Ki of 403 nM. For `Cc1nc(C(=O)NC(C)(C)c2ccc(F)c(F)c2)c(N)nc1-c1cnco1` [Ex-260, 3-amino-N-[1-(3,4-difluorophenyl)-1-methylethyl]-6-methyl-5-(1,3-oxazol-5-yl)pyrazine-2-carboxamide], the Ki is 786 nM. This Ki lies about 2-fold higher than the previous one. For `Cc1nc(C(=O)NC(C)(C)c2ccncc2)c(N)nc1-c1cnco1` [Ex-261, 3-amino-6-methyl-N-(1-methyl-1-pyridin-4-ylethyl)-5-(1,3-oxazol-5-yl)pyrazine-2-carboxamide], the affinity, expressed as Ki, was 1420 nM. As for `Cc1nc(C(=O)NCC(C)(F)F)c(N)nc1-c1cnco1` [Ex-262, 3-amino-N-(2,2-difluoropropyl)-6-methyl-5-(1,3-oxazol-5-yl)pyrazine-2-carboxamide], the figure is 340 nM; as for `Cc1cccc(CNC(=O)c2nc(C)c(-c3cnco3)nc2N)n1` [Ex-263, 3-amino-6-methyl-N-[(6-methylpyridin-2-yl)methyl]-5-(1,3-oxazol-5-yl)pyrazine-2-carboxamide], 3.75 nM. As for `Nc1nc(-n2ccnn2)c(Cl)nc1C(=O)NCc1ccccc1C(F)(F)F` [Ex-268, 3-amino-6-chloro-5-(1H-1,2,3-triazol-1-yl)-N-[2-(trifluoromethyl)benzyl] pyrazine-2-carboxamide], the figure is 359 nM; as for `Nc1nc(-n2nccn2)c(Cl)nc1C(=O)NCc1ccccc1C(F)(F)F` [Ex-269, 3-amino-6-chloro-5-(2H-1,2,3-triazol-2-yl)-N-[2-(trifluoromethyl)benzyl] pyrazine-2-carboxamide], 4.3 nM; as for `Nc1nc(-n2ccnn2)c(Cl)nc1C(=O)NCc1ccc(F)cc1F` [Ex-270, 3-amino-6-chloro-N-(2,4-difluorobenzyl)-5-(1H-1,2,3-triazol-1-yl)pyrazine-2-carboxamide], 6470 nM.

In the case of `Nc1nc(-n2nccn2)c(Cl)nc1C(=O)NCc1ccc(F)cc1F` [Ex-271, 3-amino-6-chloro-N-(2,4-difluorobenzyl)-5-(2H-1,2,3-triazol-2-yl)pyrazine-2-carboxamide], the affinity, expressed as Ki, was 6.19 nM. `Nc1nc(-n2ccnn2)c(Cl)nc1C(=O)NCc1cccc2cccnc12` [Ex-272, 3-amino-6-chloro-N-(quinolin-8-ylmethyl)-5-(1H-1,2,3-triazol-1-yl)pyrazine-2-carboxamide] yielded a Ki of 269 nM. `Nc1nc(-n2nccn2)c(Cl)nc1C(=O)NCc1cccc2cccnc12` [Ex-273, 3-amino-6-chloro-N-(quinolin-8-ylmethyl)-5-(2H-1,2,3-triazol-2-yl)pyrazine-2-carboxamide] displayed a Ki of 2.23 nM.

On to `Cc1nc(C(=O)NCc2c(F)cccc2F)c(N)nc1-n1nccn1` [Ex-274, 3-amino-N-(2,6-difluorobenzyl)-6-methyl-5-(2H-1,2,3-triazol-2-yl)pyrazine-2-carboxamide], for which the Ki was determined as 2 nM. The molecule `Cc1nc(C(=O)NCc2cccc3cccnc23)c(N)nc1-n1nccn1` [Ex-275, 3-amino-6-methyl-N-(quinolin-8-ylmethyl)-5-(2H-1,2,3-triazol-2-yl)pyrazine-2-carboxamide] showed a Ki of 2.1 nM. The molecule `CCOC(=O)c1nc(C)c(-n2nccn2)nc1N` [Ex-276, ethyl 3-amino-6-methyl-5-(2H-1,2,3-triazol-2-yl)pyrazine-2-carboxylate] had a Ki of 408 nM.

Molecule `Cc1cccnc1CNC(=O)c1nc(C)c(-n2nccn2)nc1N` [Ex-277, 3-amino-6-methyl-N-[(3-methylpyridin-2-yl)methyl]-5-(2H-1,2,3-triazol-2-yl)pyrazine-2-carboxamide] returned a Ki of 3.3 nM. Turning to `Cc1cccnc1CNC(=O)c1nc(C)c(-n2ccnn2)nc1N` [Ex-278, 3-amino-6-methyl-N-[(3-methylpyridin-2-yl)methyl]-5-(1H-1,2,3-triazol-1-yl)pyrazine-2-carboxamide], the Ki was 191 nM. This Ki is about 58-fold higher than that of the molecule before. Consider `Cc1nc(C(=O)NCc2ccc(Cl)cc2Cl)c(N)nc1-n1nccn1` [Ex-279, 3-amino-N-(2,4-dichlorobenzyl)-6-methyl-5-(2H-1,2,3-triazol-2-yl)pyrazine-2-carboxamide], for which the Ki was 59.3 nM. As to `Cc1nc(C(=O)NC2CCNc3ccccc32)c(N)nc1-n1nccn1` (centres unmarked) [Ex-280, 3-amino-6-methyl-N-(1,2,3,4-tetrahydroquinolin-4-yl)-5-(2H-1,2,3-triazol-2-yl)pyrazine-2-carboxamide], the Ki came to 148 nM.

In the case of `Nc1nc(-n2nccn2)c(Cl)nc1C(=O)N[C@@H]1CCc2ccccc21` [Ex-281, 3-amino-6-chloro-N-[(1R)-2,3-dihydro-1H-inden-1-yl]-5-(2H-1,2,3-triazol-2-yl)pyrazine-2-carboxamide], the Ki was 5.7 nM.

Molecule `Cc1cccnc1CNC(=O)c1nc(Cl)c(-n2nccn2)nc1N` [Ex-282, 3-amino-6-chloro-N-[(3-methylpyridin-2-yl)methyl]-5-(2H-1,2,3-triazol-2-yl)pyrazine-2-carboxamide] yielded a Ki of 1.4 nM. `COc1ccccc1CNC(=O)c1nc(Cl)c(-n2nccn2)nc1N` [Ex-283, 3-amino-6-chloro-N-(2-methoxybenzyl)-5-(2H-1,2,3-triazol-2-yl)pyrazine-2-carboxamide] gave a Ki of 2.4 nM. `Nc1nc(-n2nccn2)c(Cl)nc1C(=O)NCc1ccccc1OC(F)(F)F` [Ex-284] came in with a Ki of 6.5 nM. Molecule `Nc1nc(-n2nccn2)c(Cl)nc1C(=O)N[C@@H](c1ccccc1)C(F)(F)F` [Ex-286, 3-amino-6-chloro-5-(2H-1,2,3-triazol-2-yl)-N-[(1S)-2,2,2-trifluoro-1-phenylethyl]pyrazine-2-carboxamide] returned an inhibitory constant (Ki) of 124 nM.
